# Measurements reported in patent US20230067159A1, “ROR-GAMMA-T INHIBITOR, PREPARATION METHOD THEREOF AND USE THEREOF” (priority 2020, published 2023).
# Molecular target: T1, RORγ (Homo sapiens, UniProt P51449)
# T1 construct: The concentration of B-RORγ LBD was 40 nM
# T1 sequence (P51449 269-508 limits assumed): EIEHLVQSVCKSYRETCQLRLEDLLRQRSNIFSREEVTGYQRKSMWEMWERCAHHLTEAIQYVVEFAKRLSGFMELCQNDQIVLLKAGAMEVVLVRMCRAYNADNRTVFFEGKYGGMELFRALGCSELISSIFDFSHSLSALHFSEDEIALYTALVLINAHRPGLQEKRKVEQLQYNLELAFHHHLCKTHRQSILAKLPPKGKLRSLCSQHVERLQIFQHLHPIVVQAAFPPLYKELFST
# Experiment: Fluorescence resonance energy transfer (FRET) test, B-RORγ LBD / Biotin-SRC1
# Assay type: biochemical
# Experimental: Biological Example 1 Fluorescence Resonance Energy Transfer (FRET) Test
# (1) Preparation of RORγ Test Buffer and 10 mM of DTT
# 100 mL of 1× Basic test buffer (HEPES (pH 7.4), 100 mM NaCl, 0.01% BSA) was prepared, and 154.25 mg of DTT was added. The mixture was well mixed.
# (2) Preparation of Compound with Gradient Concentration
# a. Standard compound was prepared: Standard compound was diluted with 100% DMSO to 2.5 mM, then diluted 3-fold with 11 serial dilutions to a final concentration of […];
# b. Test compound was prepared referring to the standard compound.
# (3) Preparation of 1× Protein Solution Mixture
# (§1) a. Preparation of the desired amount of 2× B-RORγ LBD/SA-APC protein mixture: The concentration of B-RORγ LBD was 40 nM, and the concentration of SA-APC was 20 nM. They were mixed by gently inversion, and incubated at room temperature for 15 minutes. Then 400 nM of biotin was added. The mixture was mixed by gently inversion, and incubated at room temperature for 10 minutes;
# as §1, with “b.” for “a.”, “Biotin-SRC1/SA-eu” for “B-RORγ LBD/SA-APC”, “Bioin-SRC1” for “B-RORγ LBD”, “SA-eu” for “SA-APC”, “200” for “400”
# c. The protein mixtures prepared in step a and step b were mixed at a ratio of 1:1, and incubated at room temperature for 5 minutes;
# d. 25 μL of the mixture from step c was added to the 384-well plate containing the test compound;
# e. The mixture was centrifuged at 1000 rpm for one minute;
# f. The mixture was incubated for 1 hour at room temperature.
# (4) Data Collection and Calculation
# After incubation at room temperature for 1 hour, the fluorescence values at 665 nm and 615 nm were measured with an EnVision plate reader, and the inhibition rate was calculated.
# Inhibition rate %)=[(X−Min)/(Max−Min)]×100%
# X is the fluorescence value ratio of “665/615” of the test compound; Min is the average value of “665/615” of the DMSO blank control; Max is the average value of “665/615” of the 10 μM SRC.
row,SMILES,IC50
1,"CCS(=O)(=O)c1ccc([C@H](CCO)NC(=O)c2ccc(N3CC(Oc4ccc(OC(F)F)cc4)C[C@H]3COC(F)F)cc2)cc1 (stereo in doubt) [Example 114, 4-((2S,4S)-2-((difluoromethoxy)methyl)-4-(4-(difluoromethoxy)phenoxy)pyrrolidin-1-yl)-N—((S)-1-(4-(ethylsulfonyl)phenyl)-3-hydroxypropyl)benzamide]",2 nM
2,"CCS(=O)(=O)c1ccc([C@H](CCO)NC(=O)c2ccc(N3CC(Oc4ccc(OC(F)(F)F)cc4)C[C@H]3COC(F)(F)F)cc2)cc1 (stereo in doubt) [Example 118, N—((S)-1-(4-(ethylsulfonyl)phenyl)-3-hydroxypropyl)-4-((2S,4S)-2-((trifluoromethoxy)methyl)-4-(4-(trifluoromethoxy)phenoxy)pyrrolidin-1-yl)benzamide]",8 nM
3,"CCS(=O)(=O)c1ccc(CC(=O)Nc2ccc(N3CCC(Cc4ccc(C(F)(F)F)cc4)C3)cc2)cc1 (stereo not drawn) [Example 1, 2-(4-(Ethylsulfonyl)phenyl)-N-(4-(3-(4-(trifluoromethyl)benzyl)pyrrolidin-1-yl)phenyl) acetamide]",12 nM
4,CCS(=O)(=O)c1ccc(CNC(=O)c2ccc(N3CCC(Cc4ccc(C(F)(F)F)cc4)C3)cc2)cc1 (stereo not drawn) [Example 2],14 nM
5,"CCS(=O)(=O)c1ccc(CC(=O)Nc2ccc(C3CN(Cc4ccc(C(F)(F)F)cc4)CC3C)cc2)cc1 (stereo not drawn) [Example 5, 2-(4-(Ethylsulfonyl)phenyl)-N-(4-(4-methyl-1-(4-(trifluoromethyl)benzyl)pyrrolidin-3-yl)phenyl)acetamide]",47 nM
6,"CCS(=O)(=O)c1ccc([C@H](CO)NC(=O)c2ccc(N3CCC(Cc4ccc(C(F)(F)F)cc4)C3)cc2)cc1 (stereo partly drawn) [Example 6, N—((R)-1-(4-(ethylsulfonyl)phenyl)-2-hydroxyethyl)-4-(3-(4-(trifluoromethyl)benzyl)pyrrolidin-1-yl)benzamide]",9 nM
7,"CCS(=O)(=O)c1ccc(CNC(=O)c2ccc(N3CC(Cc4ccc(C(F)(F)F)cc4)C[C@H]3COC)cc2)cc1 (stereo partly drawn) [Example 7, N-(4-(ethylsulfonyl)benzyl)-4-((2S)-2-(methoxymethyl)-4-(4-(trifluoromethyl)benzyl)pyrrolidin-1-yl)benzamide]",8.5 nM
8,"CCS(=O)(=O)c1ccc(CNC(=O)c2ccc(N3CCC(Oc4ccc(C(F)(F)F)cc4)C3)cc2)cc1 (stereo not drawn) [Example 9, N-(4-(ethylsulfonyl)benzyl)-4-(3-(4-(trifluoromethyl)phenoxy)pyrrolidin-1-yl)benzamide]",11.9 nM
9,"CCS(=O)(=O)c1ccc(CNC(=O)c2ccc(N3CCC(N(C)c4ccc(C(F)(F)F)cc4)C3)cc2)cc1 (stereo not drawn) [Example 10, N-(4-(ethylsulfonyl)benzyl)-4-(3-(methyl(4-(trifluoromethyl)phenyl)amino)pyrrolidin-1-yl) benzamide]",23 nM
10,"CCS(=O)(=O)c1ccc(CNC(=O)c2ccc(N3CCC(Nc4ccc(C(F)(F)F)cc4)C3)cc2)cc1 (stereo not drawn) [Example 11, N-(4-(ethylsulfonyl)benzyl)-4-(3-((4-(trifluoromethyl)phenyl)amino)pyrrolidin-1-yl)benzamide]",33.8 nM
11,"CCS(=O)(=O)c1ccc([C@H](CO)NC(=O)c2ccc(N3CCC(Oc4ccc(C(F)(F)F)cc4)C3)cc2)cc1 (stereo partly drawn) [Example 12, N—((R)-1-(4-(ethylsulfonyl)phenyl)-2-hydroxyethyl)-4-(3-(4-(trifluoromethyl)phenoxy)pyrrolidin-1-yl)benzamide]",24 nM
12,"CCS(=O)(=O)c1ccc([C@H](CO)NC(=O)c2ccc(N3CC[C@H](Oc4ccc(C(F)(F)F)cc4)C3)cc2)cc1 [Example 14, N—((R)-1-(4-(ethylsulfonyl)phenyl)-2-hydroxyethyl)-4-((S)-3-(4-(trifluoromethyl)phenoxy)pyrrolidin-1-yl)benzamide]",20 nM
13,CCOC[C@@H]1CC(Oc2ccc(C(F)(F)F)cc2)CN1c1ccc(C(=O)NCc2ccc(S(=O)(=O)CC)cc2)cc1 (stereo partly drawn) [Example 19],18.6 nM
14,CCOC[C@@H]1CC(Oc2ccc(C(F)(F)F)cc2)CN1c1ccc(C(=O)N[C@@H](CO)c2ccc(S(=O)(=O)CC)cc2)cc1 (stereo partly drawn) [Example 20],14.1 nM
15,"CCS(=O)(=O)c1ccc([C@H](CO)NC(=O)c2ccc(N3C[C@H](Oc4ccc(C(F)(F)F)cc4)C[C@H]3CF)cc2)cc1 [Example 24, N—((R)-1-(4-(ethylsulfonyl)phenyl)-2-hydroxyethyl)-4-((2S,4R)-2-(fluoromethyl)-4-(4-(trifluoromethyl)phenoxy)pyrrolidin-1-yl)benzamide]",32.8 nM
16,"CCS(=O)(=O)c1ccc(CNC(=O)c2ccc(N3C[C@H](Oc4ccc(C(F)(F)F)cc4)C[C@H]3COC)cc2)cc1 [Example 25, N-(4-(ethylsulfonyl)benzyl)-4-((2S,4R)-2-(methoxymethyl)-4-(4-(trifluoromethyl)phenoxy)pyrrolidin-1-yl)benzamide]",20 nM
17,"CCS(=O)(=O)c1ccc([C@H](CO)NC(=O)c2ccc(N3C[C@H](Oc4ccc(C(F)(F)F)cc4)C[C@H]3COC)cc2)cc1 [Example 26, N—((R)-1-(4-(ethylsulfonyl)phenyl)-2-hydroxyethyl)-4-((2S,4R)-2-(methoxymethyl)-4-(4-(trifluoromethyl)phenoxy)pyrrolidin-1-yl)benzamide]",10 nM
18,"CCCOC[C@@H]1C[C@@H](Oc2ccc(C(F)(F)F)cc2)CN1c1ccc(C(=O)N[C@@H](CO)c2ccc(S(=O)(=O)CC)cc2)cc1 [Example 27, N—((R)-1-(4-(ethylsulfonyl)phenyl)-2-hydroxyethyl)-4-((2S,4R)-2-(propoxymethyl)-4-(4-(trifluoromethyl)phenoxy)pyrrolidin-1-yl)benzamide]",20.8 nM
19,CCCCOC[C@@H]1C[C@@H](Oc2ccc(C(F)(F)F)cc2)CN1c1ccc(C(=O)N[C@@H](CO)c2ccc(S(=O)(=O)CC)cc2)cc1 [Example 28],13.3 nM
20,"CCS(=O)(=O)c1ccc([C@H](CO)NC(=O)c2ccc(N3C[C@H](Oc4ccc(C(F)(F)F)cc4)C[C@H]3COCCF)cc2)cc1 [Example 29, N—((R)-1-(4-(ethylsulfonyl)phenyl)-2-hydroxyethyl)-4-((2S,4R)-2-((2-fluoroethoxy)methyl)-4-(4-(trifluoromethyl)phenoxy)pyrrolidin-1-yl)benzamide]",10.4 nM
21,"CCS(=O)(=O)c1ccc([C@H](CO)NC(=O)c2ccc(N3C[C@H](Oc4ccc(C(F)(F)F)cc4)C[C@H]3COCC(F)(F)F)cc2)cc1 [Example 30, N—((R)-1-(4-(ethylsulfonyl)phenyl)-2-hydroxyethyl)-4-((2S,4R)-2-((2,2,2-trifluoroethoxy)methyl)-4-(4-(trifluoromethyl)phenoxy)pyrrolidin-1-yl)benzamide]",17.1 nM
22,CCS(=O)(=O)c1ccc([C@H](CO)NC(=O)c2ccc(N3C[C@H](Oc4ccc(C(F)(F)F)cc4)C[C@H]3COCC3CC3)cc2)cc1 [Example 31],17 nM
23,CCS(=O)(=O)c1ccc([C@H](CO)NC(=O)c2ccc(N3C[C@H](Oc4ccc(C(F)(F)F)cc4)C[C@H]3COCCC#N)cc2)cc1 [Example 32],19 nM
24,"CCS(=O)(=O)c1ccc([C@H](CO)NC(=O)c2ccc(N3C[C@H](Oc4ccc(C(F)(F)F)cc4)C[C@H]3CO[C@H]3CCOC3)cc2)cc1 [Example 33, N—((R)-1-(4-(ethylsulfonyl)phenyl)-2-hydroxyethyl)-4-((2S,4R)-2-((((S)-tetrahydrofuran-3-yl)oxy)methyl)-4-(4-(trifluoromethyl)phenoxy)pyrrolidin-1-yl)benzamide]",132 nM
25,"CCS(=O)(=O)c1ccc([C@H](CO)NC(=O)c2ccc(N3C[C@H](Oc4ccc(C(F)(F)F)cc4)C[C@H]3COC3CCOCC3)cc2)cc1 [Example 34, N—((R)-1-(4-(ethylsulfonyl)phenyl)-2-hydroxyethyl)-4-((2S,4R)-2-(((tetrahydro-2H-pyran-4-yl)oxy)methyl)-4-(4-(trifluoromethyl)phenoxy)pyrrolidin-1-yl)benzamide]",133 nM
26,"CCS(=O)(=O)c1ccc([C@H](CO)NC(=O)c2ccc(N3C[C@H](Oc4ccc(C(F)(F)F)cc4)C[C@H]3CN3CCOC[C@@H]3C)cc2)cc1 [Example 35, N—((R)-1-(4-(ethylsulfonyl)phenyl)-2-hydroxyethyl)-4-((2S,4R)-2-(((S)-3-methylmorpholinyl)methyl)-4-(4-(trifluoromethyl)phenoxy)pyrrolidin-1-yl)benzamide]",135 nM
27,CCS(=O)(=O)c1ccc([C@H](CO)NC(=O)c2ccc(N3C[C@H](Oc4ccc(C(F)(F)F)cc4)C[C@H]3COC(F)F)cc2)cc1 [Example 40],25 nM
